13 molecules from patent US5356911A, “Substituted biphenylpyridones” (Bayer Aktiengesellschaft, priority 1991, dated 1994) can be followed below.

What is called Ki is a dissociation constant, usually derived from enzyme kinetics or from competition with a known ligand. Read a high Ki as a looser hold on the target. Broadly, the IC50 is the concentration at which inhibition is half-maximal.

Counter-ions that a name gives are not always drawn.

The target in one assay is T1, Angiotensin II receptor (Bos taurus, UniProt P25104).
T1 construct: Adrenal cortices of cattle (ACC), which have been freshly removed and carefully freed of gland medulla; from tissue; host or cells: bovine adrenal cortex, partially purified membrane fractions
T1 sequence (P25104 1-359): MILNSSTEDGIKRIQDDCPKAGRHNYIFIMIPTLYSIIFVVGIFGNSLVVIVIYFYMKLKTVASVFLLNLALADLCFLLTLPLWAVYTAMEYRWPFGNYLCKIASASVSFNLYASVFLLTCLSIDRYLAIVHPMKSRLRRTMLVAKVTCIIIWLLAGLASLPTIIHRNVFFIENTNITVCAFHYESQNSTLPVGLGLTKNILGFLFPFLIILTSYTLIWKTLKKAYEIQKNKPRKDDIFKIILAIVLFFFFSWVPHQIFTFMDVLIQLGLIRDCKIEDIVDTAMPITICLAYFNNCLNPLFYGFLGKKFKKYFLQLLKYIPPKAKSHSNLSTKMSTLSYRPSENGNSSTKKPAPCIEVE
Description: Inhibition of specific binding of 3H-angiotensin II to the angiotensin II receptor on membrane fractions of the adrenal cortex. Further details: species or system cattle (bovine). As to conditions: 3H-angiotensin II (3-5 nM), bovine adrenal cortex membranes, 60 min, room temperature. From the text:
Interaction of the Compounds According to the Invention With the Angiotensin II Receptor on Membrane Fractions of the Adrenal Cortex (Cattle)
Adrenal cortices of cattle (ACC), which have been freshly removed and carefully freed of gland medulla, are comminuted in sucrose solution (0.32M) with the aid of an Ultra-Turrax (Janke & Kunkel, Staufen i.B.) to give a coarse membrane homogenate and partially purified in two centrifugation steps to give membrane fractions. The investigations of receptor binding were carried out on partially purified membrane fractions of bovine ACC using radioactive angiotensin II in an assay volume of 0.25 ml, which in detail contains the partially purified membranes (50-80 μg), ^3 H-angiotensin II (3-5 nM), test buffer solution (50 mM tris, pH 7.2, 5 mM MgCl2 and the substances to be investigated. After an incubation time of 60 min at room temperature, the unbound radioactivity of the samples is separated by means of moistened glass fibre filters (Whatman GF/C) and the bound radioactivity is measured spectrophotometrically in a scintillation cocktail after washing the protein with ice-cold buffer solution (50 mM tris/HCl, pH 7.4, 5% PEG 6000). The analysis of the raw data was carried out using computer programs to give Ki and IC50 values (Ki: IC50 values corrected for the radioactivity used; IC50 values: concentration at which the substance to be investigated causes a 50% inhibition of the specific binding of the radioligand).
On to `CCCCc1cc(COC)cc(=O)n1Cc1ccc(-c2ccccc2-c2nnn[nH]2)cc1` [LXXXII], for which affinity was put at a Ki of 79 nM.
For `CCc1cc(CC)n(Cc2ccc(-c3ccccc3-c3nnn[nH]3)cc2)c(=O)c1C#N` [XXXIV], the Ki was above 10000 nM.
`N#Cc1c(C(=O)O)cc(C2CC2)n(Cc2ccc(-c3ccccc3-c3nnn[nH]3)cc2)c1=O` [XCIV]: the Ki is 42 nM.
In the case of `CCCc1cc(C(N)=O)cc(=O)n1Cc1ccc(-c2ccccc2-c2nnn[nH]2)cc1` [Example LVI], affinity was put at a Ki of 9 nM. Against the preceding molecule, the Ki is about 4.7-fold lower.
Still for that read-out and setting: as for `CCCCc1cc(COC)cc(=O)n1Cc1ccc(-c2ccccc2-c2nnn[nH]2)cc1` [Example LV], the figure is 15 nM.
Still for that read-out and setting: as for `CCCCc1cc(C(=O)OCC)c(C#N)c(=O)n1Cc1ccc(-c2ccccc2-c2nnn[nH]2)cc1` [XLVII], the figure is 220 nM.

Another assay concerns contraction of the isolated rabbit aorta induced by angiotensin II. Description: Inhibition of the angiotensin II-induced vascular contraction of isolated rabbit aorta rings in vitro. Type of assay: cell-based. As to conditions: Oryctolagus cuniculus; isolated aorta rings of rabbits in vitro; based on 3rd = sub-maximal agonist concentration; read-out: IC50 for contractions induced by AII. The protocol:
Investigation of the Inhibition of the Contraction Induced by Agonists
Rabbits of both sexes are stunned by a blow to the neck and bled out, or in some cases anaesthetised with Nembutal (about 60-80 mg/kg i.v.) and sacrificed by opening the thorax. The thorax aorta is removed, freed of adhering connective tissue, divided into 1.5 mm wide ring segments and individually transferred under an initial loading of about 3.5 g to 10 ml organ baths containing 95% O2, 5% CO2 -aerated Krebs-Henseleit nutrient solution adjusted to 37° C. and of the following composition: 119 mmol/l of NaCl; 2.5 mmol/l of CaCl2 ×2H2 O; 1.2 mmol/l of KH2 PO4; 10 mmol/l of glucose; 4.8 mmol/l of KCl; 1.4 mmol/l of MgSO4 ×7 H2 O and 25 mmol/l of NaHCO3.
The contractions are detected isometrically by Statham UC2 cells by means of bridge amplifiers (ifd Mulheim or DSM Aalen) and digitalised and analysed by means of an A/D converter (System 570, Keithley Munich). The agonist dose-response curves (DRC) are carried out hourly. With each DRC, 3 or 4 individual concentrations are applied to the baths at 4 min intervals. After the end of the DRC and subsequent washing-out cycles (16 times, in each case about 5 sec/min with the abovementioned nutrient solution), a 28-minute resting or incubation phase follows, in the course of which the contractions as a rule reach the starting value again.
The height of the 3rd DRC, in the normal case, is used as a reference quantity for the assessment of the test substance to be investigated in other passages, which is applied to the baths in the following DRCs in increasing dosage in each case at the start of the incubation time. Each aorta ring is in this way stimulated for the whole day, always with the same agonist.
For the calculation of the IC50 (concentration at which the substance to be investigated causes a 50% inhibition), the effect is in each case based on the 3rd=sub-maximal agonist concentration.
rings of rabbits in vitro
IC50 (g/ml) for contractions induced by: AII
On to `CCCCc1cccc(=O)n1Cc1ccc(-c2ccccc2-c2nnn[nH]2)cc1` [XXXIII], for which the concentration for half-maximal inhibition (IC50) came to 7.3 nM.
The same measure, in the same setting: the result for `CCCCc1cc(C(N)=O)cc(=O)n1Cc1ccc(-c2ccccc2-c2nnn[nH]2)cc1` [XLV] reads 3.7 nM; that for `CCCCc1cc(C(=O)O)cc(=O)n1Cc1ccc(-c2ccccc2-c2nnn[nH]2)cc1` [Example XCII, 6-Butyl-4-carboxy-2-oxo-1[(2'-tetrazol-5-yl-biphenyl-4-yl)methyl-1,2-dihydropyridinedisodium salt], 120 nM; that for `CCCCc1cc(C(=O)OCc2ccccc2)cc(=O)n1Cc1ccc(-c2ccccc2-c2nnn[nH]2)cc1` [XLIII], 39 nM.
For `CCCc1cc(C(=O)OC)cc(=O)n1Cc1ccc(-c2ccccc2-c2nnn[nH]2)cc1` [LXXVIII], the IC50 was determined as 34 nM.
With `CCCCc1cc(CO)cc(=O)n1Cc1ccc(-c2ccccc2-c2nnn[nH]2)cc1` [LIV], the IC50 came out at 13 nM.

For another assay, the system named is Angiotensin II-Infused Rat. Description: Blood pressure measurements on the angiotensin II-infused rat. Type of assay: in vivo, Male Wistar rats. As to conditions: 0.3 mg/kg p.o.; angiotensin II infusion 0.3 μg/kg/min; anaesthetised rats. The procedure:
Blood Pressure Measurements on the Angiotensin II-Infused Rat
Male Wistar rats (Moellegaard, Copenhagen, Denmark) having a body weight of 300-350 g are anaesthetised with thiopental (100 mg/kg i.p.). After tracheotomy, one catheter is inserted in the femoral artery for blood pressure measurement and one catheter is inserted in the femoral veins for angiotensin II infusion and one catheter for substance administration. After administration of the ganglionic blocker pentolinium (5 mg/kg i.v.), angiotensin II infusion (0.3 μg/kg/min) is started. As soon as the blood pressure values have reached a stable plateau, the test substances are administered either intravenously or orally as a suspension or solution in 0.5% tylose.
“6-Butyl-4-methoxycarbonyl-2-oxo-1-{[2'-(N-triphenylmethyl-tetrazol-5-yl)biphenyl-4-yl]methyl}-1,2-dihydropyridine [Example I]” gave a Blood pressure decrease above 50 mm Hg.
